Source: patent publication US4892887A, “N,N'-bis(sulfonyl)hydrazines having antineoplastic activity” (Yale University, priority 1988, dated 1990)
“Also recorded” adds a separate entry of the source. Where two headings read alike, the source gives them in different places.

Tests used:
L1210 leukemia = assay: Survival time of mice bearing the L1210 leukemia; format: in vivo, mouse (CDF-1 mice); conditions: for Max. % T/C L1210 Leukemia: Table V; for Av. Change wt. %: L1210 mice; for response vs control in vivo at 50 mg/kg / response vs control in vivo at 100 mg/kg / response vs control in vivo at 150 mg/kg: Mus musculus, read-out: % T/C; for activity against the L1210 leukemia (in words): mouse, in vivo
Source text: The ascites cell forms of the L1210 leukemia, Sarcoma 180 and P388 leukemia were propagated in CDF-1 mice. […] Mice were weighed during the course of the experiments, and the percentage change in body weight from the onset to termination of therapy was used as an indication of host toxicity.
Each value represents the average of 5 animals per group.

B16 melanoma = assay: Survival time of mice bearing the B16 melanoma; format: in vivo, mouse (C57B1 mice); conditions: for Max. % T/C B16 Melanoma: Table V; for Max. % T/C: Table IV, B16, at optimum effective daily dose; for Av. Change in wt., %: at optimum effective daily dose, B16 mice
Method: This tumor was propagated in C57B1mice. Transplantation was carried out by removing tumors from donor mice bearing 14-day subcutaneous tumor growths. The tissue was fragmented to make a well-dispersed cellular suspension and diluted with Fischer's medium without serum so that one gram of tissue was suspended in 5 ml of solution. A portion (0.2 ml) of the resulting cell suspension was injected intraperitoneally into each recipient animal. All compounds were administered over a wide range of dosage levels by intraperitoneal injection, beginning 24 hours after tumor implantation, once daily for 6 consecutive days. The test compounds were injected as fine suspensions following homogenization in 2 to 3 drops of 20% aqueous Tween 80 and then made up to volume with isotonic saline. […] Mice were weighed during the course of the experiments, and the percent change in body weight from onset to termination of therapy was used as an indication of drug toxicity. Determination of the sensitivity of neoplasms to these agents was based on the prolongation of survival time afforded by the drug treatments.
^a Administered once daily for six consecutive days, beginnign 24
hours after tumor transplanation, with 5 animals being used per group.
^b Average change in body weight from onset to termination of therapy
^c % T/C = average survival time of treated/control animals ×
100. Each value represents the average of 5 animals per group.

[1] = 50 mg/kg once daily for six days
[2] = 100 mg/kg once daily for six days
[3] = 150 mg/kg once daily for six days
[4] = 144 h, 50 mg/kg once daily for six days, L1210
[5] = 144 h, 100 mg/kg once daily for six days, L1210

Structure (SMILES)	Max. % T/C L1210 Leukemia (L1210 leukemia) [% T/C]	Max. % T/C B16 Melanoma (B16 melanoma) [% T/C]	further results
CN(NS(=O)(=O)c1ccccc1)S(=O)(=O)c1ccc(Cl)cc1 [Compound 31, N'-benzenesulfonyl-N-(p-chlorobenzenesulfonyl)-N-methylhydrazine]	111	146	–
COc1ccc(S(=O)(=O)N(C)NS(=O)(=O)c2ccc(Cl)cc2)cc1 [Compound 24, N'-(p-chlorobenzenesulfonyl)-N-(p-methoxybenzene-sulfonyl)-N-methylhydrazine]	–	170	–
Cc1ccc(S(=O)(=O)NN(C)S(=O)(=O)c2ccc(I)cc2)cc1 [Compound 59]	123	176	–
CN(NS(=O)(=O)c1ccc(Cl)cc1)S(=O)(=O)c1ccc(Br)cc1 [Compound 40, N-(p-bromobenzenesulfonyl)-N'-(p-chlorobenzenesulfonyl)-N-methylhydrazine]	–	145	–
CN(NS(=O)(=O)c1ccccc1)S(=O)(=O)Cc1ccccc1 [Compound 49, N'-benzenesulfonyl-N-benzylsulfonyl-N-methylhydrazine]	185	208	–
CN(NS(=O)(=O)c1ccc2ccccc2c1)S(=O)(=O)c1ccccc1 [Compound 18]	–	181	–
CN(NS(=O)(=O)C=Cc1ccccc1)S(=O)(=O)c1ccc(Br)cc1 [Compound 43, N-(p-bromobenzenesulfonyl)-N-methyl-N'-(2-styrenesulfonyl)hydrazine]	–	178	–
Cc1ccc(S(=O)(=O)NN(C)S(=O)(=O)c2ccc(Br)cc2)cc1 [Compound 38, N-(p-bromobenzenesulfonyl)-N-methyl-N'-(p-toluenesulfonyl)hydrazine]	127	–	–
CCS(=O)(=O)NN(C)S(=O)(=O)c1ccc(Cl)cc1 [Compound 36]	–	164	–
CN(NS(=O)(=O)c1ccccc1)S(=O)(=O)c1ccc(Br)cc1 [Compound 37, N'-benzenesulfonyl-N-(p-bromobenzenesulfonyl)-N-methylhydrazine]	–	160	–
CN(NS(C)(=O)=O)S(=O)(=O)c1ccc(Cl)cc1 [Compound 35, N-(p-chlorobenzenesulfonyl)-N'-methanesulfonyl-N-methylhydrazine]	167	194	–
CN(NS(C)(=O)=O)S(=O)(=O)Cc1ccccc1 [Compound 56]	–	203	–
CN(NS(=O)(=O)c1ccc2ccccc2c1)S(=O)(=O)Cc1ccccc1 [Compound 54]	115	–	–
CN(NS(=O)(=O)c1ccc(Br)cc1)S(=O)(=O)Cc1ccccc1 [Compound 53]	–	163	–
CN(NS(=O)(=O)c1ccccc1)S(=O)(=O)c1ccc2ccccc2c1 [Compound 45, N'-benzenesulfonyl-N-methyl-N-(2naphthalenesulfonyl)hydrazine]	106	163	–
Cc1ccc(S(=O)(=O)N(C)NS(=O)(=O)c2ccc([N+](=O)[O-])cc2)cc1 [Compound 22]	–	192	–
Cc1ccc(S(=O)(=O)NN(C)S(=O)(=O)c2ccccc2)cc1 [Compound 14]	153	178	–
CC(=O)Nc1ccc(S(=O)(=O)N(C)NS(=O)(=O)c2ccc(Br)cc2)cc1 [Compound 58]	–	164	–
COc1ccc(S(=O)(=O)NN(C)S(=O)(=O)c2ccc(Br)cc2)cc1 [Compound 39, N-(p-bromobenzenesulfonyl)-N'-(p-methoxybenzene-sulfonyl)-N-methylhydrazine]	165	167	–
COc1ccc(S(=O)(=O)N(C)NS(=O)(=O)c2ccccc2)cc1 [Compound 23]	178	151	–
CN(NS(=O)(=O)c1ccc(Cl)cc1)S(=O)(=O)Cc1ccccc1 [Compound 52]	128	184	–
CN(NS(=O)(=O)c1ccc2ccccc2c1)S(=O)(=O)c1ccc(Cl)cc1 [Compound 33, N-(p-chlorobenzenesulfonyl)-N-methyl-N'-(2-naphthalenesulfonyl)hydrazine]	109	153	–

Structure (SMILES)	Max. % T/C L1210 Leukemia (L1210 leukemia) [% T/C]	Max. % T/C B16 Melanoma (B16 melanoma) [% T/C]	further results
Cc1ccc(S(=O)(=O)N(C)NS(=O)(=O)Cc2ccccc2)cc1 [Compound 6, N'-benzylsulfonyl-N-methyl-N-(p-toluenesulfonyl)hydrazine]	–	–	Average Survival Time of Treated Animals, days ± SE (L1210 leukemia; [1]): 16.0 ± 3.4 days; Av. Change wt. % (L1210 leukemia; [1]): +10.8%; Average Survival Time of Treated Animals, days ± SE (L1210 leukemia; [2]): 12.6 ± 0.8 days; Av. Change wt. % (L1210 leukemia; [2]): +2.4%; Average Survival Time of Treated Animals, days ± SE (L1210 leukemia; [3]): 14.6 ± 1.9 days; Av. Change wt. % (L1210 leukemia; [3]): -4.3%; response vs control in vivo at 50 mg/kg (L1210 leukemia; [4]): 174%; response vs control in vivo at 100 mg/kg (L1210 leukemia; [5]): 137%; response vs control in vivo at 150 mg/kg (L1210 leukemia; 144 h, 150 mg/kg once daily for six days, L1210): 159%; activity against the L1210 leukemia (in words) (L1210 leukemia): comparable to that of compounds 1-3 and 5; also recorded: relatively high level of activity; increase in survival time of mice bearing the L1210 leukemia (L1210 leukemia; optimal daily dosage level): 74%; Max. % T/C (B16 melanoma): 172 % T/C; Av. Change in wt., % (B16 melanoma): -2.4%
CN(NS(C)(=O)=O)S(=O)(=O)c1ccc(Br)cc1 [Compound 44]	–	221	–
COc1ccc(S(=O)(=O)N(C)NS(=O)(=O)Cc2ccccc2)cc1 [Compound 28]	152	160	–
Cc1ccc(S(=O)(=O)N(C)NS(=O)(=O)c2ccc3ccccc3c2)cc1 [Compound 21, N'-(2-naphthalenesulfonyl)-N-methyl-N-(p-toluenesulfonyl)hydrazine]	134	–	–
CN(NS(=O)(=O)C=Cc1ccccc1)S(=O)(=O)C=Cc1ccccc1 [Compound 57]	–	171	–
CN(NS(=O)(=O)c1ccc(Cl)cc1)S(=O)(=O)c1ccccc1 [Compound 16]	122	148	–
COc1ccc(S(=O)(=O)N(C)NS(C)(=O)=O)cc1 [Compound 29]	274	204	activity against the L1210 leukemia (in words) (L1210 leukemia): highest increases in survival time
Cc1ccc(S(=O)(=O)NN(C)S(=O)(=O)Cc2ccccc2)cc1 [Compound 50]	144	206	–
COc1ccc(S(=O)(=O)NN(C)S(=O)(=O)c2ccc(Cl)cc2)cc1 [Compound 32, N-(p-chlorobenzenesulfonyl)-N'-(p-methoxybenzenesulfonyl)-N-methylhydrazine]	130	153	–
COc1ccc(S(=O)(=O)N(C)NS(=O)(=O)c2ccc3ccccc3c2)cc1 [Compound 27]	–	163	–
CN(NS(=O)(=O)Cc1ccccc1)S(=O)(=O)Cc1ccccc1 [Compound 55, N,N'-bis(benzylsulfonyl)-N-methylhydrazine]	–	152	–
CN(NS(=O)(=O)c1ccc2ccccc2c1)S(=O)(=O)c1ccc2ccccc2c1 [Compound 11, Nmethyl-N,N'bis(2-naphthalenesulfonyl)hydrazine]	–	–	Average Survival Time of Treated Animals, days ± SE (L1210 leukemia; [1]): 11.4 ± 1.1 days; Av. Change wt. % (L1210 leukemia; [1]): +6.9%; Average Survival Time of Treated Animals, days ± SE (L1210 leukemia; [2]): 10.2 ± 0.4 days; Av. Change wt. % (L1210 leukemia; [2]): +3.0%; Average Survival Time of Treated Animals, days ± SE (L1210 leukemia; [3]): 14.0 ± 2.3 days; Av. Change wt. % (L1210 leukemia; [3]): -3.3%; response vs control in vivo at 50 mg/kg (L1210 leukemia; [4]): 127%; response vs control in vivo at 100 mg/kg (L1210 leukemia; [5]): 113%; response vs control in vivo at 150 mg/kg (L1210 leukemia; L1210, 144 h): 156%; Max. % T/C (B16 melanoma): 164 % T/C; Av. Change in wt., % (B16 melanoma): +4.6%
Cc1ccc(S(=O)(=O)N(C)NS(=O)(=O)c2ccc(Br)cc2)cc1 [Compound 20, N'-(p-bromobenzenesulfonyl)-N-methyl-N-(p-toluenesulfonyl)hydrazine]	169	161	–
COc1ccc(S(=O)(=O)NN(C)S(=O)(=O)Cc2ccccc2)cc1 [Compound 51]	–	182	–
CN(NS(=O)(=O)c1ccc2ccccc2c1)S(=O)(=O)c1ccc(Br)cc1 [Compound 42, N-(p-bromobenzenesulfonyl)-N-methyl-N-(2-naphthalenesulfonyl)hydrazine]	–	146	–
Cc1ccc(S(=O)(=O)NN(C)S(=O)(=O)c2ccc3ccccc3c2)cc1 [Compound 46, N-(N'-naphthalenesulfonyl)-N-methyl-N'-(p-toluenesulronyl)hydrazine]	120	–	–
COc1ccc(S(=O)(=O)NN(C)S(=O)(=O)c2ccccc2)cc1 [Compound 15]	136	191	–
CN(NS(=O)(=O)C=Cc1ccccc1)S(=O)(=O)c1ccc(Cl)cc1 [Compound 34]	–	143	–
CN(NS(=O)(=O)c1ccc(Br)cc1)S(=O)(=O)c1ccc(Br)cc1 [Compound 41, N,N'-bis(p-bromobenzenesulfonyl)-N-methylhydrazine]	183	161	–
COc1ccc(S(=O)(=O)N(C)NS(=O)(=O)c2ccc(Br)cc2)cc1 [Compound 25]	134	205	–
CN(NS(=O)(=O)c1ccc(Br)cc1)S(=O)(=O)c1ccccc1 [Compound 19]	–	187	–
CN(NS(C)(=O)=O)S(=O)(=O)c1ccc(I)cc1 [Compound 62]	–	195	–
